Data reported in patent US20250235450A1, “COMBINATION THERAPIES COMPRISING APREMILAST AND TYK2 INHIBITORS” (Celgene Corporation, priority 2019, published 2025).
Where two headings read alike, the source gives them in different places.

Test system: anti-CD3/anti-CD28 (Th0) or anti-CD3/anti-CD28, IL-1β, IL-6 and IL-23 (Th17) stimulated whole blood
Assay: Ex-vivo TruCulture tube assay: cytokine production in stimulated whole blood
Assay type: cell-based, human
Conditions: for inhibition at 1 µM: Homo sapiens
Procedure: Whole blood was received through the Celgene Donor program after informed consent and donor deidentification. All volunteers were healthy and were not on any medications for at least 72 hours prior to the blood draw. Blood was collected in sodium heparin tubes. The assay was started within 2 hours of the blood draw.
An ex-vivo stimulation of healthy donor human whole blood was performed under two different stimulation conditions. Condition Th0 was a stimulation with TruCulture® tubes containing anti-CD3/anti-CD28. Condition Th17 was a stimulation with TruCulture® tubes containing anti-CD3/anti-CD28 plus IL-1β, IL-6 and IL-23. Whole blood was separated into 15 milliliter conical tubes and pre-treated with DMSO, apremilast alone, BMS-986165 alone or BMS-986165 combined with apremilast. Final concentrations were 0.2% DMSO, 1 μM for apremilast alone, 1 μM, 0.1 μM, 0.01 μM and 0.001 μM BMS-986165 alone and in combination with 1 μM apremilast. Blood was mixed well and then incubated in a 37° C./5% CO2 incubator for 1 hour.
The anti-CD3/anti-CD28 (200 ng/ml and 330 ng/ml final concentrations respectively) TruCulture® tubes were thawed on the bench top for 30 minutes and then labeled. Plungers were pressed and then broken off. TruCulture® tubes were placed in a rack standing upright such that the plunger side is pointing down in the rack and the tube-cap is pointing up. While blood was incubating with compound Human recombinant IL-6, IL-1β and IL-23 were added to all Th17 tubes in the following concentrations: 120 ng IL-6, 120 ng IL-1b and 150 ng IL-23. One ml of the pre-treated whole blood was placed in each tube, using sterile pyrogen-free pipette tips. The cap was replaced and the contents of the tube were mixed by inverting 3 times. The tubes were immediately placed in a 37° C. heat block and incubated for 42 hours (tube-cap end). After the 42 hours the tubes were removed from the heat block, tops were unscrewed and 250 μl of the supernatant was removed and transferred into three 96-well polypropylene plates. Samples were immediately frozen at −80° C. The supernatants were then thawed at room temperature and tested neat for cytokine production by Luminex Multi-Plex MagPix technology (Millipore) or IL-22 by ELISA (Abcam). The manufacturer's procedures were followed accordingly.
Data processing for the cytokine analysis was done using Milliplex Analyst (Millipore), and raw data was exported to Excel template for the cytokine analysis. Data from the template was plotted using GraphPad Prism 7.0 (GraphPad Software, Inc., La Jolla, CA) and expressed as pg/ml or % of control. Statistical analysis was also performed using One Way Anova and Dunnett's Post Test.
To evaluate the combinatory effect of apremilast and BMS-986165, data from the two independent treatments were analyzed by comparing the combinatory response against the theoretical additive response of the two agents. The expected additive effect of two agents (A and B) was calculated using the fractional product method: (fu)A,B=(fu)A×(fu)B; where fu=fraction unaffected by treatment.

In the case of CCOc1cc([C@@H](CS(C)(=O)=O)N2C(=O)c3cccc(NC(C)=O)c3C2=O)ccc1OC [Apremilast, N-[2-[(1S)-1-(3-ethoxy-4-methoxyphenyl)-2-(methylsulfonyl)ethyl]-2,3-dihydro-1,3-dioxo-1H-isoindol-4-yl]acetamide], the inhibition at 1 µM (Th0, 1 μM apremilast, read-out: inhibition of IL-17F production) is reported as 69%, the inhibition at 1 µM (Th0, 1 μM apremilast, read-out: inhibition of TNF-α levels) is reported as 90% and the inhibition at 1 µM (Th17, 1 μM apremilast, read-out: inhibition of IL-17F production) is reported as 49%. The inhibition at 1 µM (Th17, 1 μM apremilast, read-out: inhibition of TNF-α levels) was 94%, the “CCL20 % of Control” value (Th0, 1 μM apremilast) was 59.5 % of Control and the “GM-CSF % of Control” value (Th0, 1 μM apremilast) was 20.3 % of Control. For the same molecule, the “IFN-γ % of Control” value (Th0, 1 μM apremilast) was 9.3 % of Control, the “IL-1β % of Control” value (Th0, 1 μM apremilast) was 16.4 % of Control and the “IL-2 % of Control” value (Th0, 1 μM apremilast) was 17.9 % of Control. For the same molecule, the “IL-4 % of Control” value (Th0, 1 μM apremilast) was 30.3 % of Control, the “IL-5 % of Control” value (Th0, 1 μM apremilast) was 6.2 % of Control and the “IL-6 % of Control” value (Th0, 1 μM apremilast) was 52.8 % of Control. For the same molecule, the “IL-10 % of Control” value (Th0, 1 μM apremilast) was 41.6 % of Control, the “IL-13 % of Control” value (Th0, 1 μM apremilast) was 15.3 % of Control and the “IL-17A % of Control” value (Th0, 1 μM apremilast) was 71.6 % of Control. The “IL-17F % of Control” value (Th0, 1 μM apremilast) was 31.8 % of Control, the “IL-21 % of Control” value (Th0, 1 μM apremilast) was 62.9 % of Control and the “IL-22 % of Control” value (Th0, 1 μM apremilast) was 14.8 % of Control. The “IL-23 % of Control” value (Th0, 1 μM apremilast) was 82.1 % of Control, the “TNF-α % of Control” value (Th0, 1 μM apremilast) was 10.7 % of Control and the “inhibition of IL-17A cytokine expression” value (Th0, 1 μM apremilast) was 28%. For the same molecule, the “inhibition of IL-22 cytokine expression” value (Th0, 1 μM apremilast) was 85%, the “reduction of GM-CSF cytokine expression” value (Th0, 1 μM apremilast) was 80% and the IL-17A levels (Th0, 1 μM apremilast, control 138 pg/mL) was 93 pg/mL. The IL-17F levels (Th0, 1 μM apremilast, control 1085 pg/mL) was 368 pg/mL, the TNF-α levels (Th0, 1 μM apremilast, control 1380 pg/mL) was 148 pg/mL and the “effect on GM-CSF, statistical significance” value (Th0 and Th17, apremilast) was “significantly inhibited”. The “CCL20 % of Control” value (Th17, 1 μM apremilast) was 220.3 % of Control, the “GM-CSF % of Control” value (Th17, 1 μM apremilast) was 33.8 % of Control and the “IFN-γ % of Control” value (Th17, 1 μM apremilast) was 18.7 % of Control. The “IL-1β % of Control” value (Th17, 1 μM apremilast) was 98 % of Control, the “IL-2 % of Control” value (Th17, 1 μM apremilast) was 14.4 % of Control and the “IL-4 % of Control” value (Th17, 1 μM apremilast) was 36.7 % of Control. The “IL-5 % of Control” value (Th17, 1 μM apremilast) was 4.8 % of Control, the “IL-6 % of Control” value (Th17, 1 μM apremilast) was 95.3 % of Control and the “IL-10 % of Control” value (Th17, 1 μM apremilast) was 32.6 % of Control. The “IL-13 % of Control” value (Th17, 1 μM apremilast) was 22.1 % of Control, the “IL-17A % of Control” value (Th17, 1 μM apremilast) was 102.4 % of Control and the “IL-17F % of Control” value (Th17, 1 μM apremilast) was 59.7 % of Control. For the same molecule, the “IL-21 % of Control” value (Th17, 1 μM apremilast) was 76.2 % of Control, the “IL-22 % of Control” value (Th17, 1 μM apremilast) was 57.5 % of Control and the “IL-23 % of Control” value (Th17, 1 μM apremilast) was 94.3 % of Control. For the same molecule, the “TNF-α % of Control” value (Th17, 1 μM apremilast) was 5.8 % of Control, the “effect on IL-17A cytokine expression” value (Th17, 1 μM apremilast) was “no effect” and the “inhibition of IL-22 cytokine expression” value (Th17, 1 μM apremilast) was 41%. The “reduction of GM-CSF cytokine expression” value (Th17, 1 μM apremilast) was 66%, the TNF-α levels (Th17, 1 μM apremilast, control 1436 pg/mL) was 91 pg/mL and the IL-17F levels (Th17, 1 μM apremilast, control 6524 pg/mL) was 3643 pg/mL. For the same molecule, the “effect on GM-CSF production” value (whole blood, Th0 and Th17) was “inhibited” and the “effect on TNF-α production” value (whole blood, Th0 and Th17) was “inhibited”.
